From US6576422B1, “Method for identifying products employing gene expression” (Rohm and Haas Company, priority 2000, dated 2003)

How the values were obtained:
L57 cells = assay: Insect cell-based marker ligand assay (EcR gene switch, β-galactosidase reporter), L57 cells; conditions: Drosophila melanogaster, 48 h, read-out: L57 Cells (Fold Induction)
BRL-AG2 cells = assay: Insect cell-based marker ligand assay (EcR gene switch, β-galactosidase reporter), BRL-AG2 cells; conditions: 48 h
[1] = read-out: BRL-AG2 (Fold Induction)
[2] = read-out: BRL-AG2 Cells (Fold Induction)

`COc1cccc(C(=O)NN(C(=O)c2cc(C)cc(C)c2)C(C)(C)C)c1C` [Marker, N′-tert-butyl-N′-(3 ,5-dimethylbenzoyl)-3-methoxy-2-methylbenzohydrazide] was tested. Which fold induction at 0.07 µg/mL (L57 cells) did it give?
The fold induction at 0.07 µg/mL was 27.

And the fold induction at 0.12 µg/mL (L57 cells)?
Its fold induction at 0.12 µg/mL is 1.

What about the fold induction at 0.69 µg/mL (L57 cells) of the same compound?
Its fold induction at 0.69 µg/mL is 46.

And the fold induction at 1.2 µg/mL (L57 cells)?
The fold induction at 1.2 µg/mL was 23.

What about the fold induction at 6.95 µg/mL (L57 cells) of the same compound?
The fold induction at 6.95 µg/mL was 63.

And the fold induction at 12 µg/mL (L57 cells)?
Its fold induction at 12 µg/mL is 30.

What about the fold induction at 0.12 µg/mL (BRL-AG2 cells; [1]) of the same compound?
Its fold induction at 0.12 µg/mL is 16.

And the fold induction at 1.2 µg/mL (BRL-AG2 cells; [1])?
Its fold induction at 1.2 µg/mL is 21.

What about the fold induction at 12 µg/mL (BRL-AG2 cells; [1]) of the same compound?
Its fold induction at 12 µg/mL is 31.

What about the fold induction at 0.07 µg/mL (BRL-AG2 cells; [2]) of the same compound?
The fold induction at 0.07 µg/mL was 151.

And the fold induction at 0.69 µg/mL (BRL-AG2 cells; [2])?
Its fold induction at 0.69 µg/mL is 182.

And the fold induction at 6.95 µg/mL (BRL-AG2 cells; [2])?
Its fold induction at 6.95 µg/mL is 202.
